Results on five compounds are retold here after patent US20240287123A1 (Victoria Link Limited, priority 2021, published 2024).

SMILES strings stand for the structures. “Also recorded” adds a separate entry of the source. Like-named read-outs stand apart in the source and are kept apart here. Some results are limits rather than exact numbers.

For data set [1], the system named is HCMV (AD169 strain in HFF cells). Briefly: CPE (cytopathic effect) assay for HCMV. In kind it is cell-based, Human Cytomegalovirus. As for the experimental part: (§1) Human foreskin fibroblast (HFF) cells prepared from human foreskin tissue were obtained from the University of Alabama at Birmingham tissue procurement facility with approval from its IRB. The tissue was incubated at 4° C. for 4 h in Clinical Medium consisting of minimum essential media (MEM) with Earl's salts supplemented with 10% fetal bovine serum (FBS) (Hyclone, Inc. Logan UT), L-glutamine, fungizone, and vancomycin. Tissue was then placed in phosphate buffered saline (PBS), minced, rinsed to remove the red blood cells, and resuspended in trypsin/EDTA solution. The tissue suspension was incubated at 37° C. and gently agitated to disperse the cells, which were collected by centrifugation. Cells were resuspended in 4 ml Clinical Medium and placed in a 25 cm^2 flask and incubated at 37° C. in a humidified CO2 incubator for 24 h. The media was then replaced with fresh Clinical Medium and the cell growth was monitored daily until a confluent monolayer had formed. The HFF cells were then expanded through serial passages in standard growth medium of MEM with Earl's salts supplemented with 10% FBS, L-glutamine, penicillin, and gentamycin.
(§2) Akata cells were obtained from Louisiana State University, Baton Rouge, LA. The HCMV strain AD169 was obtained from the American Type Culture Collection (ATCC, Manassas, VA). Akata cells latently infected with EBV were obtained from Louisiana State University, Baton Rouge, LA.
(§3) Each experiment that evaluates the antiviral activity of compounds includes both positive and negative control compounds to ensure the performance of each assay. Concurrent assessment of cytotoxicity was also performed for each study in the same cell line and with the same compound exposure.
Assays were performed in monolayers as described.37 Cells were seeded in 384 well plates and incubated for 24 h to allow the formation of confluent monolayers. Dilutions of test drug were prepared directly in the plates and the monolayers infected at a predetermined MOI based on virus used. After incubation, cytopathology was determined by the addition of CellTiter-Glo (CTG) reagent. […] Toxicity was measured using CTG as above.

Data set [2] is described as follows: Cytotoxicity in HFF cells (CellTiter-Glo), concurrent with HCMV assay. It is filed as cell-based. Conditions: human. As for the experimental part: as §1, with “gentamycin. The cells were passaged routinely and used for assays at or below passage ^10.37,38” for “gentamycin.”
as §3
Assays were performed in monolayers as described.37 Cells were seeded in 384 well plates and incubated for 24 h to allow the formation of confluent monolayers. Dilutions of test drug were prepared directly in the plates and the monolayers infected at a predetermined MOI based on virus used. After incubation, cytopathology was determined by the addition of CellTiter-Glo (CTG) reagent. Concentrations of test compound sufficient to reduce CPE by 50% (EC50) or decrease cell viability by 50% (CC50) were interpolated using standard methods in Microsoft Excel. Toxicity was measured using CTG as above.
Background: In ATP-based viability assays light output follows the ATP content of the culture.

Data set [3] in a line: Cytotoxicity in Akata cells (CTG), concurrent with EBV assay. Particulars: human, Table 1. In kind it is cell-based. As for the experimental part:
as §3
Assays for EBV were performed by reported methods.^37 Akata cells were induced to undergo a lytic infection with 50 μg/ml of a goat anti-human IgG antibody. Experimental compounds were diluted within plates. The cells were added and incubated for 72 h. Similar plates were initiated without virus induction/addition and used for measuring cytotoxicity by the addition of CTG. For all assays, the replication of the virus was assessed by the quantification of viral DNA. […] Compound concentrations sufficient to reduce genome copy number by 50% were calculated from experimental data as well as compound cytotoxicity.

Data set [4] has as its system HHV-6B (Z29; MOLT-3). Briefly: HHV-6B antiviral assay (Z29; MOLT-3). In kind it is cell-based, human betaherpesvirus 6B. Conditions: cidofovir (CDV) control, MOLT-3, HHV-6B, control run alongside, read-out: CDV control result (EC50/UM).
In data set [5] the test system is EBV (Akata/Akata). Kind of data set: EBV assay: viral DNA quantification in induced Akata cells. It is filed as cell-based, Epstein-Barr virus. Conditions: for activity against EBV: cell-based assay, highest concentration tested in primary assays 50 μM. As for the experimental part: as §2, §3
Assays for EBV were performed by reported methods.^37 Akata cells were induced to undergo a lytic infection with 50 μg/ml of a goat anti-human IgG antibody. Experimental compounds were diluted within plates. The cells were added and incubated for 72 h. Similar plates were initiated without virus induction/addition and used for measuring cytotoxicity by the addition of CTG. For all assays, the replication of the virus was assessed by the quantification of viral DNA. For EBV, primers 5′-[…]-3′ and 5′-CAG TTC CTC GCCTTAGGTTG-3 amplified a fragment corresponding to coordinates 96802-97234 in EBV genome (AJ507799). Compound concentrations sufficient to reduce genome copy number by 50% were calculated from experimental data as well as compound cytotoxicity.

The test system of data set [6] is Zika virus. Conditions: Vero cells, 1 mM; cited from earlier work.
The subject of data set [7] is HIVADA. Briefly: HIV p24 alphaLISA in infected monocyte derived macrophages. It is filed as cell-based, Human Immunodeficiency Virus. Particulars: for levels of HIV p24 viral capsid protein: 100 μM, infected MDM, days 2-7, compared with DMSO control. As for the experimental part: Primary human MDMs were cultured from peripheral blood mononuclear cells and pre-treated for 24 h with ddhC (100 μM), compound 8 (100 μM), compound 21 (100 μM), emtricitabine control (15 μM, 10 μM, 1 μM, 0.1 μM), or the drug vehicle, DMSO. MDM were then infected with HIVADA in the presence of these compounds and treated daily (with compound), while culture supernatants were collected to quantify levels of HIV p24, a viral capsid protein, on days 2-7 of infection.
Leukopaks from healthy donors were obtained from the New York Blood Center and processed by Ficoll gradient centrifugation to isolate peripheral blood mononuclear cells (PBMC). These PBMC were cultured adherently into monocyte derived macrophages (MDM), according to published protocols, on 60 mm dishes for 6 days with 10-20 ng/ml macrophage colony stimulating factor (M-CSF). MDM were pre-treated with ddhC, compound 8, compound 21, emtricitabine (Cat. No .: 10071), or DMSO vehicle at indicated concentrations for 24 hours (NIH AIDS Reagent Program, Bethesda, MD). Cells were left uninfected or infected for 24 h in the presence of one of the compounds listed above with 20 ng/mL HIVADA, a macrophage-tropic HIV strain originally derived from a person with HIV (NIH). Media was changed daily with the mentioned compounds added each time, and supernatants were collected on days 2, 3, 4, 5, 6, and 7 of infection. Each treatment condition was analyzed in duplicate plates per experiment.
Supernatant samples were analyzed for the viral capsid protein, HIV p24, by a sensitive p24 alphaLISA according to the manufacturer's protocol (Perkin-Elmer, Waltham, MA). Treatment conditions were analyzed in duplicate plates, and each supernatant was analyzed in duplicate on a 96-well alphaLISA plate. These were then fit to a sigmoid standard curve to extrapolate HIV p24 levels in pg/mL within the assay limits of detection.
(In general: Alpha assays give light when donor and acceptor beads are brought close together.)

Data set [8] has as its system primary human MDM. Briefly: Toxicity to MDM: LDH assay and light microscopy. In kind it is cell-based. As for the experimental part:
Light microscopy was used to image MDMs on day 7 of infection. […] Colorimetric LDH assays were also performed on culture supernatants from these same cells on day 4 of infection to assess cell death.
At the end of each experiment, cells were imaged by light microscopy. After aspirating off media, cells were washed with PBS, and lysates were harvested in extraction buffer containing 0.1% Formic acid, 50% ACN, 40% MeOH, 10% H2O.
Drug toxicity was analyzed using an LDH assay kit according to manufacturer's instructions (Abcam #ab65393, Toronto, Canada). Briefly, supernatants from duplicate plates per treatment condition were added to a 96-well plate. Each supernatant was run in triplicate. Provided assay buffer was added to culture supernatants after mixing with a substrate solution that turns orange upon lactate exposure. After incubation for 30-45 min, colorimetric signal was quantified an OD of 450 nm. LDH was a positive control as well as cells lysed with 10% lysis buffer in media representing the “high control” to which % cytotoxicity was measured. The reference sample was either control uninfected cells treated with DMSO or negative control HIV-infected cells treated with DMSO. Culture media alone was used as a technical negative control. This background signal that was subtracted from all test wells.

Setting [9] is: Akata cells (without virus induction).
[10] abbreviates: human gammaherpesvirus 4, Akata, Akata/Akata, Table 1, read-out: EBV EC50.
Setting [11] is: human gammaherpesvirus 4, Akata, read-out: EC50 against EBV.
Setting [12] is: Human betaherpesvirus 5, AD169 strain in HFF cells, Table 1, read-out: HCMV EC50.
Setting [13] is: human gammaherpesvirus 4, Akata, read-out: Result for compound (EC50/UM), EBV Akata/Akata, assay order Primary.

A word on the CC50: it is the concentration at which the toxic effect on the cells reaches its halfway point. Take `Nc1nc(O)c2ncn(COC(CO)CO)c2n1` [Ganciclovir, ganciclovir, reference compound]: in data set [1] (Human betaherpesvirus 5, AD169, HFF, read-out: HCMV EC50), the EC50 worked out at 0.55 µM. For the same compound, the cytotoxic concentration (CC50) in data set [2] (HFF cells, Table 1, read-out: HCMV CC50) was > 150 µM.

Turning to `Nc1ccn(C[C@@H](CO)OCP(=O)(O)O)c(=O)n1` [Cidofovir, cidofovir, reference compound], in data set [3] (setting [9]), the half-maximal cytotoxic concentration (CC50) at 72 h was > 100 µM. The EC50 turned out to be 3.42 µM in data set [4] (Primary); 4.26 µM in data set [4] (Secondary); 2.58 µM in data set [5] (EBV Akata/Akata, control run alongside, Primary, read-out: CDV control result (EC50/UM)); 1.93 µM in data set [5] (EBV Akata/Akata, control run alongside, Secondary, read-out: CDV control result (EC50/UM)); 8.25 µM in data set [5] (setting [10]); 8.25 µM in data set [5] (setting [11]). Moreover, the EC50 in data set [5] (read-out: CDV control result (EC50/UM), EBV Akata/Akata, control run alongside, Secondary) turned out to be 5.95 µM.

`Nc1ccn([C@@H]2OC(CO)=C[C@H]2O)c(=O)n1` [ddhC, 3′-Deoxy-3′,4′-didehydro-cytidine, reference compound]: in data set [6], the Zika virus proliferation entry was “reduce Zika virus proliferation”. Also, the “antiviral activity against HCMV” value in data set [1] was “does not display antiviral activity”. Besides, the EC50 in data set [1] (setting [12]) is > 50 µM; in data set [5] (setting [10]), 38.7 µM; in data set [5] (setting [13]) it was 38.7 µM; in data set [5] (setting [11]) it was 7.6 to 38.7 µM. The “levels of HIV p24 viral capsid protein” value in data set [7] was “no reduction”. Also, the CC50 at 72 h in data set [3] (setting [9]) is > 50 µM. Besides, in data set [2], the 50% cytotoxic concentration (CC50) was > 50 µM. The “activity against EBV” value in data set [5] was “five-fold less active than compound 8; also recorded: only weakly inhibited”.

`CC(C)C(=O)OCC1=C[C@@H](O)[C@H](n2ccc(NO)nc2=O)O1` [Compound 10, 3′-Deoxy-3′,4′-didehydro-4-N-hydroxy-5′-O-isobutyroyl-cytidine]: the EC50 in data set [1] (Human betaherpesvirus 5, AD169, HFF, approximate, read-out: EC50 against HCMV) is ~0.03 µM; in data set [1] (setting [12]), 0.03 µM; in data set [5] (setting [10]), 29.9 µM; in data set [5] (setting [13]), 29.9 µM; in data set [5] (setting [11]) it was 7.6 to 38.7 µM. For the same compound, the 50% cytotoxic concentration (CC50) at 72 h in data set [3] (setting [9]) was > 50 µM. The CC50 in data set [2] was > 50 µM. In addition, the “activity against EBV” value in data set [5] was “slightly diminishes the activity”.

`CC(C)OC(=O)[C@H](C)N[P@](=O)(OCC1=C[C@@H](O)[C@H](n2ccc(N)nc2=O)O1)Oc1ccccc1` [Compound 21, 3′-Deoxy-3′,4′-didehydrocytidine-5′-O-[phenyl(isopropoxy-L-alaninyl) ]-Sp-phosphoramidate]: the “levels of HIV p24 viral capsid protein” value in data set [7] is recorded as “significantly reduce; also recorded: significantly decreased”. For the same compound, the “impact on HIV replication relative to the DMSO control” value in data set [7] (low doses: compound 8 compound 21 (0.1-1 μM) as printed) is listed as “minimal impact”. In data set [8] (100 μM, day 4 of infection), the “LDH activity in HIV-infected MDMs relative to DMSO controls” value is “nearly identical”. For the same compound, the “toxicity to MDMs” value in data set [8] (100 uM, visual inspection by light microscopy and colorimetric LDH assays) is reported as “non-toxic”. Besides, the cytotoxic concentration (CC50) at 72 h in data set [3] is > 50 µM. For the same compound, the “activity against EBV” value in data set [5] is given as “more weakly inhibiting”. Further, the figures for the EC50 in data set [5] (setting [10]), in data set [5] (setting [13]) and in data set [5] (setting [11]) were 23.7 µM, 23.8 µM and 7.6 to 38.7 µM, respectively.
